Data reported in patent US7056863B1, “Synergistic herbicidal compositions herbicides from the group of the hydroxyphenylpyruvate dioxygenase inhibitors” (Aventis CropScience GmbH, priority 1999, dated 2006).

Experiments:
KCHSC (Kochia scoparia) = assay: Outdoor plot trial, post-emergence treatment, visual evaluation of herbicidal activity; assay type: in vivo; conditions: Example B.I, outdoors
Protocol: (§1) Outdoors, crop plants were grown on plots of a size of from 5 to 10 m^2 on various soils and under various climatic conditions, and the natural presence of harmful plants and/or their seeds in the soil was utilized for the experiments. The treatment with the compositions according to the invention or the herbicides A) and B) applied individually was carried out after emergence of the harmful and the crop plants, in general at the 2- to 4-leaf stage. The active compounds or active compound combinations, formulated as WG, WP or EC, was carried out by the post-emergence method. After 2 to 8 weeks, visual evaluation was carried out in comparison with an untreated comparative group. […] In addition, the herbicidal activities of the compositions according to the invention exceed the expected values according to Colby.
(§2) If the observed activity values of the mixtures already exceed the formal sum of the values for the trials with individual applications, they also exceed the expected value according to Colby which is calculated using the following formula (cf. S. R. Colby; in Weeds 15 (1967) pp. 20 to 22):
(§3) The figures denote: • A, B=Activity of Components A and B in percent, at a dosage of a and b gram of ai/ha, respectively. • E=Expected value in % at a dosage of a+b gram of ai/ha.

[1] = system: PHBPU (Pharbitis purpurea); assay: as above; assay type: in vivo; conditions: outdoors
Protocol: as §1, §2, §3

[2] = system: CHEAL (Chenopodium album); assay: as above; assay type: in vivo; conditions: outdoors
Protocol: as §1, §2, §3

[3] = system: POROL (Portulaca oleracea); assay: as above; assay type: in vivo; conditions: outdoors
Protocol: as §1, §2, §3

TRZDU (Triticum davam) = assay: Outdoor plot trial, post-emergence treatment, damage to crop plant; conditions: in vivo
Protocol: as §1

HORVS (Hordeum vulgaris) = assay: as above; assay type: in vivo; conditions: Example B.VI, 100 g of ai/ha
Protocol: as §1

BRAPL = assay: Outdoor plot trial, post-emergence treatment, visual evaluation of herbicidal activity; assay type: in vivo; conditions: Example B.VII, 300 g of ai/ha, outdoors
Protocol: as §1, §2, §3

ZEAMX (Zea mays) = assay: Outdoor plot trial, post-emergence treatment, damage to crop plant; assay type: in vivo; conditions: Example B.VII, 300 g of ai/ha
Protocol: as §1

`CS(=O)(=O)c1ccc(C(=O)C2C(=O)CCCC2=O)c(Cl)c1C1=NOCC1` [Compound A1] gave a KCHSC found (KCHSC (Kochia scoparia); 25 g of ai/ha) of 28%.

`Cc1cc(C(=O)C2C(=O)CCCC2=O)c(C)c2c1S(=O)(=O)CCC2Oc1ncccn1` (stereo not shown) [Compound A2] showed a PHBPU found ([1]; Example B.II, 50 g of ai/ha) of 65%, a PHBPU found ([1]; Example B.III, 100 g of ai/ha) of 45% and a CHEAL found ([2]; Example B.IV, 100 g of ai/ha) of 34%. It also gave a POROL found ([3]; Example B.V, 100 g of ai/ha) of 0%.

`CS(=O)(=O)c1ccc(C(=O)C2C(=O)CCCC2=O)c(Cl)c1COCC(F)(F)F` [Compound A4] gave a POROL found ([3]; Example B.VIII, 25 g of ai/ha) of 5% and a TRZDU found (TRZDU (Triticum davam)) of 5%.

`COc1cc(OC)nc(NC(=O)NS(=O)(=O)c2ccc(NC=O)cc2C(=O)N(C)C)n1` [Compound B1] was tested, and the PHBPU found ([1]; Example B.II, 30 g of ai/ha) was 20%, the POROL found ([3]; Example B.V, 30 g of ai/ha) was 43% and the KCHSC found (KCHSC (Kochia scoparia); 30 g of ai/ha) was 30%. It also gave a KCHSC found (KCHSC (Kochia scoparia); 60 g of ai/ha) of 33%.

Compound `CP(=O)(O)CCC(N)C(=O)O` (stereo not shown) [Compound B2, glufosinate] has a PHBPU found ([1]; Example B.III, 500 g of ai/ha) of 43% and a CHEAL found ([2]; Example B.IV, 500 g of ai/ha) of 60%.

Work on `CC(C)(F)c1nc(N)nc(NC(CCc2ccccc2)C2CCC2)n1` (stereo not shown) [Compound B3] yielded a CHEAL found ([2]; Example B.VI, 100 g of ai/ha) of 30% and an HORVS found (HORVS (Hordeum vulgaris)) of 0%.

In the case of `COC(=O)c1ccc(I)cc1S(=O)(=O)[N-]C(=O)Nc1nc(C)nc(OC)n1.[Na+]` [Compound B4], the POROL found ([3]; Example B.VIII, 2.5 g of ai/ha) is reported as 20% and the TRZDU found (TRZDU (Triticum davam)) is reported as 15%.

`N#Cc1cc(Br)c(O)c(Br)c1` [Compound B5, bromoxynil] gave a BRAPL found (BRAPL) of 0% and a ZEAMX found (ZEAMX (Zea mays)) of 0%.
